Reference: patent US9381186B2, “Substituted chroman derivatives, medicaments and use in therapy” (MEI Pharma, Inc., priority 2004, dated 2016)
Read-outs that look alike come from different tables or passages of the source.

Legend:
[1] = tested on: NFF (neonatal foreskin fibroblasts); assay: Cytotoxicity (MTT proliferation assay) against neonatal foreskin fibroblasts; type: cell-based, Human
Description: (§1) The normal cell line NFF (neonatal foreskin fibroblasts) was a gift from Dr. Peter Parsons (Queensland Institute of Medical Research). RK (rabbit kidney) cells were obtained from Miller Whalley (Macquarie University). Both cell lines were cultured in RPMI supplemented with 10% FCS (CSL, Australia), penicillin (100 U/ml), streptomycin ([…]), L-glutamine (2 mM) and sodium bicarbonate (1.2 g/L), and cultured at 37° C. in a humidified atmosphere of 5% CO2
(§2) IC50 values were determined for each cell line. Cells were seeded in 96-well plates at an appropriate cell density as determined from growth kinetics analysis and cultured for 5 days in the absence and presence of the test compounds. Cell proliferation was assessed after the addition of 20 μl of 3-4,5 dimethylthiazol-2,5-diphenyl tetrazolium bromide (MTT, 2.5 mg/ml in PBS, Sigma) for 3-4 hrs at 37° C. according to manufacturer's instructions. IC50 values were calculated from semi-log plots of % of control proliferation on the y-axis against log dose on the x-axis.

[2] = tested on: CP70; assay: MTT proliferation assay, ovarian CP70; type: cell-based
[3] = tested on: PC3; assay: MTT proliferation assay, prostate PC3; type: cell-based; conditions: Homo sapiens, PC-3
Description: (§3) An cultures were supplemented with 10% FCS (CSL, Australia), penicillin (100 U/ml), streptomycin ([…]), L-glutamine (2 mM) and sodium bicarbonate (1.2 g/L), and cultured at 37° C. in a humidified atmosphere of 5% CO2. All cell lines were purchased from ATCC (Maryland, USA) except where noted.
as §2

[4] = tested on: HTB-138; assay: MTT proliferation assay, glioma HTB-138; type: cell-based
Description: as §3, §2

[5] = tested on: HPAC; assay: MTT proliferation assay, pancreatic HPAC; type: cell-based; conditions: Homo sapiens, Table 2.2
[6] = tested on: CCRF-CEM; assay: MTT proliferation assay, leukaemia (ALL) CCRF-CEM; type: cell-based; conditions: Homo sapiens, Table 2.2
Description: as §3, §2

[7] = tested on: NCI-H460; assay: MTT proliferation assay, NSC lung NCI-H460; type: cell-based; conditions: Homo sapiens; NSC Lung NCI-H460, Table 2.2
Description: as §3, §2

[8] = tested on: murine macrophages (RAW 264.7) stimulated with LPS; assay: Eicosanoid synthesis in LPS-stimulated RAW 264.7 macrophages; type: cell-based, mouse; conditions: test compound 10 μM, LPS 50 ng/ml, 16 hrs; negative = inhibition
Description: The mouse macrophage cell line RAW 264.7 was cultured in DMEM supplemented with foetal calf serum (FCS), 2 mM glutamine and 50 U/ml penicillin/streptomycin. Subconfluent cells were detached from the flask by gentle scraping and 24-well plates seeded at 5×10^5 cells per well and allowed to adhere for 1 hr. Cells were then treated either test compound at a concentration of 10 μM (in 0.025% DMSO) or vehicle alone, and incubated for 1 hr. LPS 50 ng/ml (LPS—Sigma-Aldrich) was then added. After incubation for 16 hrs, culture media was collected and stored at −80° C. for ecosanoid measurements using enzyme immunometric assays (PGE2 and TXB2—Cayman Chemical).

[9] = tested on: MM200; assay: MTT proliferation assay, melanoma MM200; type: cell-based
[10] = tested on: MDA-MB-468; assay: MTT proliferation assay, breast MDA-MB-468; type: cell-based; conditions: Homo sapiens
[11] = tested on: HT-29; assay: MTT proliferation assay, colorectal HT-29; type: cell-based; conditions: Homo sapiens; Colorectal HT-29, Table 2.2; read-out: IC50
Description: as §3, §2

[12] = tested on: RK (rabbit kidney) cells; assay: Cytotoxicity (MTT proliferation assay) against rabbit kidney cells; type: cell-based; conditions: Oryctolagus cuniculus; rabbit kidney cells
Description: as §1, §2

[13] = tested on: NCI-H23; assay: MTT proliferation assay, lung NCI-H23; type: cell-based; conditions: Homo sapiens; Lung NCI-H23, Table 2.1; read-out: cytoxicity (IC50)
Description: as §3, §2

[14] = Oral pharmacokinetics in female BALB/c mice; type: in vivo, mouse; conditions: female, BALB/c, mouse, serum, 50 mg/kg; oral; read-out: t1/2
Description: Compound No. 1 labelled above was prepared as homogenous suspensions in 1% CMC (m:v, water). The formulation was delivered orally by gavage to female BALB/c mice at a dosage of 50 mg/kg. Three animals were allocated to each timepoint (15 min, 30 min, 1 hr, 4 hr and 24 hr). At each respective timepoint, animals were euthanised by cervical dislocation and blood collected. The concentration of free compound was analysed by mass spectroscopy.

[15] = Ovarian CP70, Table 2.2, read-out: IC50
[16] = Prostate PC3, Table 2.2, read-out: IC50
[17] = Glioma HTB-138, Table 2.2, read-out: IC50
[18] = Melanoma MM200, Table 2.2, read-out: IC50
[19] = Breast MDA-MB-468, Table 2.2, read-out: IC50

IC50 [3, 16] [µM]	IC50 [4, 17] [µM]	IC50 [6] [µM]	IC50 [7] [µM]	IC50 [9, 18] [µM]	IC50 [10, 19] [µM]	IC50 [11] [µM]	SMILES	IC50 [2, 15] [µM]	IC50 [5] [µM]	Percentage change in PGE2 synthesis compared with vehicle [8] [%]	Percentage change in TXB2 synthesis compared with vehicle [8] [%]	also measured
							N.N.[Cl][Pt][Cl] [Cisplatin, reference compound]					IC50 ([1]; non-transformed neonatal foreskin fibroblasts, read-out: IC50): 9 µM; IC50 ([1]; text says rabbit kidney cells, values are those of the NFF line of Table 1, read-out: degree of toxicity (IC50)): 9.9 µM
37.5 ± 0.4	60.2	40.7	39.7				Cc1ccc(C2(O)c3ccc(O)cc3OCC2c2ccc(O)cc2)cc1 (stereo not shown) [Compound 10]	27.5	50	−23.1	−7.1	
> 100	86.3	95.4	> 100	60.4 ± 9.2			COc1ccc(C2(O)c3ccc(O)cc3OCC2c2ccc(O)cc2)cc1 (stereo not shown) [Compound 11]	52.7 ± 13	> 100	−51.0	−53.2	
32.8 ± 4.7	47.7	> 100		> 100	63.5 ± 4.6	49.5 ± 32	COc1ccc(C2COc3cc(OC)ccc3C2(O)c2ccc(OC)cc2)cc1 (stereo not shown) [Compound 12]	> 100	86.3 ± 67	−68.3	−34.0	
74 ± 4	> 100	90.2	> 100	72.8	> 100		Oc1ccc(C2COc3cc(O)ccc3C2(O)c2ccccc2)cc1 (stereo not shown) [Compound 14]	61.3	> 100	−23.6	−40.9	
> 100	> 100	81.8	> 100				COc1cccc(C2(O)c3ccc(O)cc3OCC2c2ccc(O)cc2)c1 (stereo not shown) [Compound 15]	65 ± 1.9	> 100	−38.3	−58.4	
28 ± 7.3	33.7	16.6	31.6 ± 4.9	14.6			COc1ccc(C2=C(c3ccc(O)cc3)COc3cc(O)ccc32)cc1 [Compound 27]	22.4 ± 0.7	27.6 ± 5.3	−84.2	−86.1	
49 ± 16	62.4	> 100	41.6	64 ± 74	30.5 ± 4	29.4 ± 4.4	COc1ccc(C2=C(c3ccc(OC)cc3)c3ccc(OC)cc3OC2)cc1 [Compound 28]	62 ± 44	50.7 ± 35	−85.1	−50.1	
45 ± 4.9	45.7	66.6	43.5 ± 9.2	33 ± 3	> 100		Oc1ccc(C2=C(c3ccccc3)c3ccc(O)cc3OC2)cc1 [Compound 30]	18	41 ± 5.3	−60.7	−62.6	
47 ± 8.4	94.6	51.5 ± 12	76.3	27.2 ± 4.6		> 100	COc1cccc(C2=C(c3ccc(O)cc3)COc3cc(O)ccc32)c1 [Compound 31]	53.4	34.6	−41.4	−48.3	
13 ± 0.6	29 ± 2	15.4	39.3 ± 7.7	12.6 ± 3.7	9.2 ± 5.1	24.8 ± 3.9	COc1ccc(C2=C(c3ccc(O)cc3)COc3c2ccc(O)c3C)cc1 [Compound 32]	17.7 ± 5.9	35.8	−71.1	−34.4	
							Oc1ccc(C2=Cc3ccc(O)cc3OC2)cc1 [Phenoxodiol, reference compound]					IC50 [12]: > 150 µM; IC50 ([2]; read-out: cytoxicity (IC50)): 11.1 ± 23.6 µM; IC50 ([3]; Prostate PC3, Table 2.1, read-out: cytoxicity (IC50)): 9.1 ± 8 µM; IC50 ([10]; MDA-MB-468, read-out: cytoxicity (IC50)): 8.9 ± 4.8 µM; IC50 ([4]; Glioma HTB-138, Table 2.1, read-out: cytoxicity (IC50)): 20.4 ± 17.5 µM; IC50 [13]: 8.3 ± 6.7 µM; IC50 ([9]; read-out: cytoxicity (IC50)): 6.2 ± 4.5 µM; half-life [14]: ~30 min
